These results are taken from patent US9598448B2, “Osmium (II) arene imino anti-cancer complexes” (University of Warwick, priority 2010, dated 2017).

One series has as its system RT-112 bladder. In words: MTT growth inhibition assay, RT-112. The conditions noted are these: MTT, 96 h. The class given is cell-based, human. The method, then: (§1) Tumor cell growth inhibition was assessed using the MTT assay.^13 2×10^3 cells were inoculated into a 96-well plate and incubated overnight at 37° C. in a humidified atmosphere containing 5% CO2. Complexes were solubilised in DMSO as above, and then diluted in complete cell culture medium to give a broad range of concentrations. Cisplatin was included in the screen as a comparator. Medium was removed from each well and replaced with complex or control solutions, and the plates then incubated for a further 96 hours. After 96 h culture medium was removed and 200 μL of 0.5 mg mL^−1 MTT solution (Sigma) in complete medium added to each well. Following further 4 h incubation, the solution was removed from each well and 150 μL of DMSO (Sigma) added to solubilise the formazan crystals resulting from MTT conversion. Absorbance values for the resulting solutions were read at 550 nm on a microplate reader and cell survival calculated as the absorbance of treated cells divided by the control. Results were expressed in terms of IC50 values (i.e. concentration of compound required to kill 50% of cells) and all experiments were performed in triplicate.
(§2) The following human cancer cell lines were cultured in RPMI 1640 cell culture medium supplemented with 1 mM sodium pyruvate, 2 mM L-glutamine and 10% fetal bovine serum (all from Sigma): A549 non-small cell lung, HCT-116 colon, MCF-7 breast, PC-3 prostate (all from LGC Promochem, Teddington, UK), A2780/cis ovarian (cisplatin-resistant) and RT-112 bladder (both from ECACC, Salisbury, UK).
In general terms: Tetrazolium dyes change colour on reduction, which living cells bring about.

Series [1] has as its system human ovarian A2780 cancer cells. The series can be described thus: SRB growth inhibition assay, A2780. The class given is cell-based. The conditions noted are these: SRB; 24 h exposure, 72 h recovery; read-out: IC50 values for azopyridine complexes against A2780 ovarian cancer cells. As for the experimental part:
The concentrations of the osmium complexes that inhibit 50% of the proliferation of human ovarian A2780 cancer cells were determined by sulforhodamine B test. A2780 cells were seeded in 96-well plate (Falcon) at 5000 cells/well, after the incubation for 48 h, The complexes were solubilised in DMSO (Sigma) to provide 10 mM stocks. The stocks were serially diluted by cell culture media to give concentrations four-fold than the final concentrations for the assay. The dilutions of complexes in cell culture media were added to the 96-well plate with cells in triplicates to achieve the final concentrations. The final DMSO concentration in each well was no more than 1% (v/v). The complexes were removed after 24 h. The cells were washed with Phosphate Buffered Saline once and cell culture media was added 150 μL/well. The cells were recovered for 72 h. The surviving cells were fixed by adding 150 μL/well of 50% (w/v) trichloroacetic acid and incubated for 1 h at 277 K (277 K). The plates were washed with tap water three times and dried under a flow of warm air, 0.4% sulforhodamine B (Sigma) solution 100 μL/well followed by washing with 1% acetic acid five times and dried under a flow of warm air. The dye was dissolved in 10 mM Tris buffer […] The absorbance of each well was obtained by the Multiskan Ascent plate reader (Labsystems) at 540 nm. The absorbance value of SRB in each well is directly proportional to the cell number. Then the absorbance can be plotted against concentration and the IC50 determined by using Origin software.
The cytotoxicity studies were carried out as described previously above.

Another series has as its system A2780 cells. The series can be described thus: N-acetyl-L-cysteine (NAC) treatment, cell viability by SRB. Type of series: cell-based, human. The conditions noted are these: pretreated with 5 mM NAC for 2 h; 1.2-1.8× IC50 (2.5× for cisplatin). As for the experimental part:
Then NAC and osmium complexes were removed at the same time and washed with PBS once, the cells were incubate for 72 h for recovery. The cell viability was tested by SRB test same as used for IC50 test.

The subject of a further series is PC-3 prostate. The series can be described thus: MTT growth inhibition assay, PC-3. The conditions noted are these: 96 h. The class given is cell-based, human. As for the experimental part: as §1, §2
The next series has as its system A549 non-small cell lung. In words: MTT growth inhibition assay, A549. Type of series: cell-based, human. The conditions noted are these: 96 h. As for the experimental part: as §1, §2
Series [2] concerns A2780/cis ovarian (cisplatin-resistant). In words: MTT growth inhibition assay, A2780/cis. The class given is cell-based, human. The following applies: 96 h. As for the experimental part: as §1, §2
The next series relates to MCF-7 breast. In words: MTT growth inhibition assay, MCF-7. The class given is cell-based, human. The following applies: 96 h. The method, then: as §1, §2
Series [3] concerns human A549 lung cancer cells. The conditions noted are these: cited from earlier work.
For another series, the system named is HCT-116 colon. The series can be described thus: MTT growth inhibition assay, HCT-116. The class given is cell-based, human. The following applies: 96 h. As for the experimental part:
as §1, §2

Series [4] in a line: Stability and hydrolysis (1H NMR, MS, UV-vis). The conditions noted are these: 310 K, 24 h, 95% deuterated phosphate buffer (10 mM)/5% MeOD-d4. The class given is physicochemical.

pIC50: −log10 of the molar value.

For orientation: pIC50 means the IC50 on a negative log10 scale, so that one unit is a factor of ten. Consider “[(η^6-p-cym)Os(Azpy-NMe2)Cl]PF6 [Complex 12]”, for which the pIC50 is 5.66 in the series on RT-112 bladder; 5.74 in series [1]; 5.17 in the series with PC-3 prostate; 5.28 in the series with A549 non-small cell lung; 5.74 in series [2]; 5.96 in the series on MCF-7 breast. The pIC50 in the series with HCT-116 colon is 6.05. Besides, in the series with A2780 cells, the “cell growth restored after NAC pretreatment” value is on record as “only a small effect on restoring growth”. In addition, the “cytotoxicity against the A549 cancer cell line” value in series [3] is recorded as “did not show significant cytotoxicity”. For the same substance, the “activity towards human A549 lung cancer cells” value in series [3] (up to concentrations of 100 μM) was “No activity”. Further, the “stability and hydrolysis in aqueous solution” value in [4] is “remained stable and did not hydrolyze”.
